# Data: patent publication US12310970B2, “Compounds and methods for treating or preventing anterior segment ocular disorders and/or retinal degenerations” (YALE UNIVERSITY, priority 2018, dated 2025)
# Where a name gives a salt, the structure may show the parent alone.
# What was measured:
# [1] = test system: Human ARPE-19 cells; assay: Light microscopy of cell morphology after TBHP challenge; assay type: cell-based
# Protocol: FIG. 1B depicts cells alone (control). FIG. 1C depicts cells treated with 300 μM TBHP. FIG. 1D depicts cells treated with 0.9 μM of ciclopirox olamine.
# FIG. 8B depicts cells alone (control). FIG. 8C depicts cells treated with 300 μM TBHP. FIG. 8D depicts cells treated with 0.6 μM compound 414.
# Human ARPE-19 cells morphology was examined using phase contrast on a Zeiss 510 NLO confocal laser scanning microscope with a Plan-Apochromatic 20×0.8 DIC objective.
# [2] = test system: Human ARPE-19 cells; assay: Expression of oxidative stress and apoptosis related genes after TBHP; assay type: cell-based; conditions: 0.9 μM 24 h preincubation, 300 μM TBHP 24 h
# Protocol: FIG. 2 depicts the gene expression pattern of oxidative stress related genes after tert-butyl hydroperoxide-induced cell death. Human ARPE-19 cells were preincubated ciclopirox olamine (0.9 μM) for 24 hours and then exposed to 300 μM tert-butyl hydroperoxide (TBHP) for 24 hours. […] FIG. 3 depicts apoptotic gene expression patterns after oxidative stress-induced cell death in human retinal pigment epithelial (RPE) cells. Human ARPE-19 cells were preincubated with ciclopirox olamine for 24 hours and then exposed to 300 μM tert-butyl hydroperoxide (TBHP) for 24 hours. […] The expression levels of genes related to oxidative stress were identified after exposure to TBHP for 24 hours (FIG. 2).
# [3] = test system: HUVEC; assay: TBHP-induced cell death in HUVEC; assay type: cell-based, human; conditions: 0.9 μM 24 h preincubation, 400 μM TBHP 24 h
# Protocol: (§1) FIG. 17 is a graph illustrating that Compound 414 and 434 protect various cell types from oxidative stress-induced cell death. Human ARPE-19, HUVEC, and C6 cells were preincubated with compound 414 and 434 for 24 hours, and then exposed to 400 μM tert-butyl hydroperoxide (TBHP) to induce cell death for 24 hours.
# (§2) Human ARPE-19, HUVEC, and C6 cells were preincubated with compound 414 and 434 for 24 hours, and then exposed to 400 μM tert-butyl hydroperoxide (TBHP) to induce cell death for 24 hours.
# [4] = test system: Human ARPE-19 cells; assay: CellTox Green cytotoxicity assay; assay type: cell-based; conditions: 0.9 μM 24 h
# Protocol: FIG. 14 is a graph illustrating cytotoxicity level of the compounds in human retinal pigment epithelial (RPE) cells. Human ARPE-19 cells were preincubated with 0.9 μM of compound 414 or 434 for 24 hours and then exposed to 300 μM tert-butyl hydroperoxide (TBHP) for 24 hours. Cell toxicity was measured in human ARPE-19 cells after treatment with TBHP and compounds 414 and 434.
# Human ARPE-19 or primary RPE were plated in 96-well plates for 24 hours in DMEM supplemented with FBS and antibiotics. ARPE-19 cells were incubated with compound (Chemical Diversity) or exposed to tert-butyl hydroperoxide (Sigma-Aldrich, St. Louis, MO) for 24 hours. Cell cytotoxicity was measured the following day by CellTox™ Green cytotoxicity assay (Promega, Madison, WI) using a BioTek FLx800™ fluorescence reader (BioTek, Winooski, VT).
# After exposure to TBHP for 24 hours and treatment with compound 414 or 434 cytotoxicity levels were measured in human ARPE-19 cells (FIG. 14).
# [5] = test system: 661 W photoreceptor-derived cells; assay: TBHP-induced oxidative stress in 661 W photoreceptor-derived cells; assay type: cell-based, Murine; conditions: 24 h preincubation, then 300 μM TBHP 24 h, n=4
# Protocol: As shown in FIGS. 20A-20B, compounds 414 and 434 protect 661 W photoreceptor-derived cells from tert-butyl […] oxidative stress. Retinal photoreceptor-derived cell line (661 W) were cultured until confluent in Dulbecco's modified eagle medium (DMEM) with 10% fetal bovine serum (FBS). Murine photoreceptor-derived cells were preincubated with 3 μMciclopirox olamine for 24 hours and then exposed to 300 μM tert-butyl hydroperoxide (TBHP) to induce cell death for 24 hours. […] Bar: standard error, n=4. student t-test was performed for statistical analysis.
# [6] = test system: C6 cells; assay: TBHP-induced cell death in C6 cells; assay type: cell-based; conditions: 0.9 μM 24 h preincubation, 400 μM TBHP 24 h
# Protocol: as §1, §2
# [7] = test system: Human ARPE-19 cells; assay: Cell viability on nitrite-modified extracellular matrix; assay type: cell-based; conditions: 0.9 μM, 24 h
# Protocol: To prepare the RPE ECM nitrite-treated plates, ARPE-19 cells were grown on 24-well Transwell permeable supports (Corning, Tewksbury, MA, USA) in 12-well plates for 6 to 8 weeks to allow for ECM formation. ARPE-19 cells were removed by the addition of 20 mM ammonium hydroxide buffer for 20 minutes, and the ECM was washed three times with phosphate-buffered saline (PBS). Phosphate-buffered saline was removed from the RPE-derived ECM (RPE-ECM), which was then allowed to dry. The RPE-derived ECM plates were either used immediately after drying, or stored at −20° C. for future use. RPE-derived ECM was processed further to create four experimental plating surfaces (untreated, nitrite modified, nitrite modified followed by washing, or nitrite modified followed by washing and coating with a mixture of ECM ligands).
# Nitrite-modified ECM was prepared by adding 100 mM sodium nitrite to the ECM and incubating at 37° C. for 7 days. Plates were then washed at least four times with PBS and further incubated with PBS for 4 hours. Following this, the plates were washed at least two additional times to completely remove the nitrite.
# Reactive nitrogen species (RNS) act together with reactive oxygen species (ROS) to damage cells, causing nitrosative stress. […]
Compound,cell morphology after challenge with TBHP ([1]; 0.9 μM ciclopirox olamine and 300 μM TBHP),expression of genes related to anti-oxidative stress [2],expression of genes related to oxidative stress [2],gene expression of Bax [2],gene expression of caspase 8 [2],cell morphology after challenge with TBHP ([1]; 0.6 μM compound and 300 μM TBHP),protection from oxidative stress-induced cell death [3],"cytotoxicity, treatment with compound alone [4]",cell viability after exposure to TBHP [5],protection from oxidative stress-induced cell death [6],cell viability on nitrite-modified ECM [7]
"Cc1cc(C2CCCCC2)n(O)c(=O)c1 [ciclopirox olamine, 6-cyclohexyl-1-hydroxy-4-methyl-2(1H)-pyridone, ethanolamine salt, reference compound]",helps to preserve a normal morphology,elevated,reduced,reduced,reduced,–,–,–,–,–,–
CCc1cccc(C)c1Nc1c(-c2cc(Br)ccc2O)nc2ncccn12 [compound 414],–,–,–,–,–,helps to preserve a normal morphology,Protective effects,reduce cytotoxicity,significantly increased cell viability,Protective effects,enhances cell viability
CCc1cccc(C)c1Nc1c(-c2cc(Br)ccc2O)nc2nc(C)cc(C)n12 [compound 434],–,–,–,–,–,–,Protective effects,reduce cytotoxicity,significantly increased cell viability,Protective effects,enhances cell viability
